From ChEMBL document CHEMBL3600366, “New 4-[(3-cyclohexyl-4-aryl-2,3-dihydro-1,3-thiazol-2-ylidene)amino]benzene-1-sulfonamides, synthesis and inhibitory activity toward carbonic anhydrase I, II, IX, XII” (Bioorg Med Chem Lett, 2015)

These molecules were tested against Carbonic anhydrase 1 (Homo sapiens, UniProt P00915) (assay: Inhibition of human carbonic anhydrase-1).
Chain of Carbonic anhydrase 1 (P00915 whole entry): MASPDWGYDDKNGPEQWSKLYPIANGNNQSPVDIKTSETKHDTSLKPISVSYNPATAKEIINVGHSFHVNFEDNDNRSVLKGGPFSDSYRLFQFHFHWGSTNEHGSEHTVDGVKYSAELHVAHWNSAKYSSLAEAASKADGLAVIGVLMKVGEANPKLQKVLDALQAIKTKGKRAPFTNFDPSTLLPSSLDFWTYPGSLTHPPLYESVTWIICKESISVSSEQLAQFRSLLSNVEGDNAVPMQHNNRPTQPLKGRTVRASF

Ki [nM]	SMILES
> 10000	NS(=O)(=O)c1ccc(/N=c2\scc(-c3ccc(Br)cc3)n2C2CCCCC2)cc1

These molecules were tested against Carbonic anhydrase 9 (Homo sapiens, UniProt Q16790) (assay: Inhibition of human carbonic anhydrase-9).

Ki [nM]	SMILES
150	NS(=O)(=O)c1ccc(/N=c2\scc(-c3cccs3)n2C2CCCCC2)cc1
353	NS(=O)(=O)c1ccc(/N=c2\scc(-c3ccc(Cl)cc3)n2C2CCCCC2)cc1
354	NS(=O)(=O)c1ccc(/N=c2\scc(-c3ccccc3)n2C2CCCCC2)cc1
32.5	NS(=O)(=O)c1ccc(/N=c2\scc(-c3ccc(-c4ccccc4)cc3)n2C2CCCCC2)cc1
29.4	NS(=O)(=O)c1ccc(/N=c2\scc(-c3ccc([N+](=O)[O-])cc3)n2C2CCCCC2)cc1
16.5	COc1ccc(-c2cs/c(=N\c3ccc(S(N)(=O)=O)cc3)n2C2CCCCC2)cc1

Further lines, the molecule ahead of its results:

SMILES	Ki [nM]
NS(=O)(=O)c1ccc(/N=c2\scc(-c3cccc([N+](=O)[O-])c3)n2C2CCCCC2)cc1	193
NS(=O)(=O)c1ccc(/N=c2\scc(-c3ccc(F)cc3)n2C2CCCCC2)cc1	274
NS(=O)(=O)c1ccc(/N=c2\scc(-c3ccc(Cl)cc3Cl)n2C2CCCCC2)cc1	342
NS(=O)(=O)c1ccc(/N=c2\scc(-c3ccc(F)cc3F)n2C2CCCCC2)cc1	85.5
N#Cc1ccc(-c2cs/c(=N\c3ccc(S(N)(=O)=O)cc3)n2C2CCCCC2)cc1	29.5
Cc1ccc(-c2cs/c(=N\c3ccc(S(N)(=O)=O)cc3)n2C2CCCCC2)cc1	22.7
